Data from patent US8148391B2 (Cephalon, Inc., priority 2006, dated 2012).

Experiments:
[1] = target: T1, baculovirus-expressed ALK (Homo sapiens, UniProt Q9UM73); assay: ALK Kinase Assay (ELISA-type, time-resolved fluorescence); assay type: biochemical; conditions: ALK kinase inhibition, 1 μM ATP; read-out: ALK Activity
T1 construct: host or cells: baculovirus expression system
Procedure, shortened: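 Substrate coating: phospholipase C-γ, 10 μg/mL in TBS. Kinase step: 30 ng/ml ALK, 15 min, 37° C. Detection and analysis: Eu-N1 PT66 antibody, with IC50 fitted as a sigmoidal variable-slope dose-response curve.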

[2] = target: T2, c-Met (cytoplasmic domain) (Homo sapiens, UniProt P08581); assay: c-Met Kinase Assay (same methods as for ALK, with modifications); assay type: biochemical; conditions: c-Met kinase inhibition, 1 μM ATP; read-out: cMet Activity
T2 construct: 10 ng/mL c-Met (cytoplasmic domain, Invitrogen Corporation #PV3143); purchased Invitrogen Corporation PV3143
T2 sequence (P08581 956-1390 limits assumed): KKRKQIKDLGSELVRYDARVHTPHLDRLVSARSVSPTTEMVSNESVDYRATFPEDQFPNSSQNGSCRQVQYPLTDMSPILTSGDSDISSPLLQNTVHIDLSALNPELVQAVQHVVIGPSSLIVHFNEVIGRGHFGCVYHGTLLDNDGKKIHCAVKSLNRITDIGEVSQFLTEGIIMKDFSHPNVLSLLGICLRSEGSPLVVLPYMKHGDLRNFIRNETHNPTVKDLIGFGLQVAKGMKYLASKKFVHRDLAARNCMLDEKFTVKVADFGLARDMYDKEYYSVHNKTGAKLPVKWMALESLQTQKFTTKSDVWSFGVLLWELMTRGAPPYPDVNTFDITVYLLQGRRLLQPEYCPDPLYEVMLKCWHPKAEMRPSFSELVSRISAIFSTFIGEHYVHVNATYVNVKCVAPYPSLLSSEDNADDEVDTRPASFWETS
Procedure, shortened: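 Wells were coated with 10 μg/mL phospholipase C-γ substrate in TBS, and reactions were started with 10 ng/mL c-Met cytoplasmic domain and run at 37° C for 15 minutes. Phosphorylated product was detected with Eu-N1-labeled PT66 antibody. IC50 values came from sigmoidal variable-slope fits of percent inhibition versus log compound concentration.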

T1 sequence (Q9UM73 19-1620): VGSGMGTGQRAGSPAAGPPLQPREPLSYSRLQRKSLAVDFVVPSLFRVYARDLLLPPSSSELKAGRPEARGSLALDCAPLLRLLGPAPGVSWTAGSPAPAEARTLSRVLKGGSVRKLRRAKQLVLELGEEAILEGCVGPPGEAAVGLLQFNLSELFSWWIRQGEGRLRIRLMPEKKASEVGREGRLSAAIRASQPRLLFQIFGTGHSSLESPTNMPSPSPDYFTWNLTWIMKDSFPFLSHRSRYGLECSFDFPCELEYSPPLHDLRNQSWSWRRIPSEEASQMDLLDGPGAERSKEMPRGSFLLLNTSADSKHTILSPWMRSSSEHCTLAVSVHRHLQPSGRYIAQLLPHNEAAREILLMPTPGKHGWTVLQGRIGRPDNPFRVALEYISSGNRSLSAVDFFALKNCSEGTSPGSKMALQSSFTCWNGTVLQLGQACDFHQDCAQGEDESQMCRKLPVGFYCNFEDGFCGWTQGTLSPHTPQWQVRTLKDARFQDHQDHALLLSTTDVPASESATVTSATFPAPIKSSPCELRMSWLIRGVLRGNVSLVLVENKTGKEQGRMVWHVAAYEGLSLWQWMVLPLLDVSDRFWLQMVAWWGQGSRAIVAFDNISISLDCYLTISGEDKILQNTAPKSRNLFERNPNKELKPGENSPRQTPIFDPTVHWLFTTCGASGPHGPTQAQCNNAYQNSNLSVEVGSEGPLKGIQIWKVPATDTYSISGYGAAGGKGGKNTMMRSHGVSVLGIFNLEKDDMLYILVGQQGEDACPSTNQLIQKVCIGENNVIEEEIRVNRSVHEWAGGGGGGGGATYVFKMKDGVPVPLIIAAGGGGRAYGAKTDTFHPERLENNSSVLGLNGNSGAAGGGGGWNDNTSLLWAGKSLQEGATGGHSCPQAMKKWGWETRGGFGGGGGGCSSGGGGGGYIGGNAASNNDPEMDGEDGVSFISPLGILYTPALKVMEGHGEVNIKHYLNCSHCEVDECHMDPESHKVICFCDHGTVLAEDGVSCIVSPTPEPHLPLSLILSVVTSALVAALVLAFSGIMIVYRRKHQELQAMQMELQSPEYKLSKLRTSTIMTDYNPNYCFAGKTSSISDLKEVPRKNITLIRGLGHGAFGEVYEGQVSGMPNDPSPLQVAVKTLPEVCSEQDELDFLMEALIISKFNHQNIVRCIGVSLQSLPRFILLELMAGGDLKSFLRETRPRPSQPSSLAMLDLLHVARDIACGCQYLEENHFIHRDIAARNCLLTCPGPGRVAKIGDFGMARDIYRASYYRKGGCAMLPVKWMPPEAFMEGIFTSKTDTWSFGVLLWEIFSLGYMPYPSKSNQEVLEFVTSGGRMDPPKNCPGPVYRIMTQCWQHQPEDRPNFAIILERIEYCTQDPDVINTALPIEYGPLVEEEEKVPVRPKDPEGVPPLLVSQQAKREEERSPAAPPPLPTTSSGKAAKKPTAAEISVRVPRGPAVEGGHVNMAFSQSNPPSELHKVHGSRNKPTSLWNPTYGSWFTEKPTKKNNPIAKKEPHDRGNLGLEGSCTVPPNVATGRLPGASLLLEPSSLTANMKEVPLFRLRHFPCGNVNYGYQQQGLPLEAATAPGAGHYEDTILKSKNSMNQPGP

| SMILES | IC50 [1] | IC50 [2] |
| --- | --- | --- |
| CCN1C(=O)CN(C(C)=O)Cc2ccc(Nc3ncc(Cl)c(Nc4c(F)cccc4C(=O)NC)n3)cc21 [Example 1851, 2-[2-(4-Acetyl-1-ethyl-2-oxo-2,3,4,5-tetrahydro-1H-benzo[e][1,4]diazepin-8-ylamino)-5-chloro-pyrimidin-4-ylamino]-3-fluoro-N-methyl-benzamide] | 1000 to 10000 nM | < 100 nM |
| CCN1C(=O)CN(C(C)=O)Cc2ccc(Nc3ncc(Cl)c(Nc4c(C)csc4C(=O)NC)n3)cc21 [Example 1852, 3-[2-(4-Acetyl-1-ethyl-2-oxo-2,3,4,5-tetrahydro-1H-benzo[e][1,4]diazepin-8-ylamino)-5-chloro-pyrimidin-4-ylamino]-4-methyl-thiophene-2-carboxylic acid-methylamide] | < 100 nM | < 100 nM |
| CCN1C(=O)CN(C(C)=O)Cc2ccc(Nc3ncc(Cl)c(Nc4ccsc4C(=O)NC)n3)cc21 [Example 1853, 3-[2-(4-Acetyl-1-ethyl-2-oxo-2,3,4,5-tetrahydro-1H-benzo[e][1,4]diazepin-8-ylamino)-5-chloro-pyrimidin-4-ylamino]-thiophene-2-carboxylic acid methylamide] | 1000 to 10000 nM | < 100 nM |
| CCN1C(=O)CN(C(C)=O)Cc2ccc(Nc3ncc(Cl)c(Nc4c(Cl)cccc4C(=O)NC)n3)cc21 [Example 1854, 2-[2-(4-Acetyl-1-ethyl-2-oxo-2,3,4,5-tetrahydro-1H-benzo[e][1,4]diazepin-8-ylamino)-5-chloro-pyrimidin-4-ylamino]-3-chloro-N-methyl-benzamide] | 100 to 1000 nM | < 100 nM |
| CCN1C(=O)CN(C(C)=O)Cc2ccc(Nc3ncc(Cl)c(Nc4ccccc4C(=O)NC)n3)cc21 [Example 1855, 2-[2-(4-Acetyl-1-ethyl-2-oxo-2,3,4,5-tetrahydro-1H-benzo[e][1,4]diazepin-8-ylamino)-5-chloro-pyrimidin-4-ylamino]-N-methyl-benzamide] | 1000 to 10000 nM | < 100 nM |
| CCN1CC(=O)N(CC)c2cc(Nc3ncc(Cl)c(Nc4ccsc4C(=O)NC)n3)ccc2C1 [Example 1856, 3-[5-Chloro-2-(1,4-diethyl-2-oxo-2,3,4,5-tetrahydro-1H-benzo[e][1,4]diazepin-8-ylamino)-pyrimidin-4-ylamino]-thiophene-2-carboxylic acid methylamide] | < 100 nM | < 100 nM |
| CNC(=O)c1cccc(F)c1Nc1nc(Nc2ccc3c(c2)NC(=O)CN(C(=O)OCc2ccccc2)C3)ncc1Cl [Example 1857, 8-[5-Chloro-4-(2-fluoro-6-methylcarbamoyl-phenylamino)-pyrimidin-2-ylamino]-2-oxo-1,2,3,5-tetrahydro-benzo[e][1,4]diazepine-4-carboxylic acid benzyl ester] | 100 to 1000 nM | < 100 nM |
| CNC(=O)c1ccccc1Nc1nc(Nc2ccc3c(c2)NC(=O)CNC3)ncc1Cl [Example 1858, 2-[5-Chloro-2-(2-oxo-2,3,4,5-tetrahydro-1H-benzo[e][1,4]diazepin-8-ylamino)-pyrimidin-4-ylamino]-N-methyl-benzamide] | 100 to 1000 nM | < 100 nM |
| CNC(=O)c1ccccc1Nc1nc(Nc2ccc3c(c2)NC(=O)CN(Cc2ccccc2)C3)ncc1Cl [Example 1859, 2-[2-(4-Benzyl-2-oxo-2,3,4,5-tetrahydro-1H-benzo[e][1,4]diazepin-8-ylamino)-5-chloro-pyrimidin-4-ylamino]-N-methyl-benzamide] | 100 to 1000 nM | 100 to 1000 nM |
| CNC(=O)c1cccc(F)c1Nc1nc(Nc2ccc3c(c2)NC(=O)CN(S(C)(=O)=O)C3)ncc1Cl [Example 1860, 2-[5-Chloro-2-(4-methanesulfonyl-2-oxo-2,3,4,5-tetrahydro-1H-benzo[e][1,4]diazepin-8-ylamino)pyrimidin-4-ylamino]-3-fluoro-N-methyl-benzamide] | < 100 nM | < 100 nM |
